Laboratory results as given in patent US10264794B2, “Compositions comprising unsaturated fatty esters and uses thereof” (priority 2013, dated 2019).

System: ASTM test fungi
Experiment: Agar plate testing
Format: cell-based
Details: agar plates, 14 days at 30 C
From the text: ASTM test fungi in Petri dishes were subjected to Treatment solutions with and without unsaturated fatty esters (linoleic, oleic, linolenic and arachidonic esters as a 1:1:1:1 ratio). The agar plate test method allowed for rapid determinations of antifungal efficacy against wood-degrading strains of concern. The certified cultures were obtained from the American Type Culture Collection (ATCC) and propagated as per the product information sheets: • Irpex lacteus: ATCC number 11245, yeast medium Difco 0712 (ATCC medium no. 200) • Neolentius lepideus: ATCC number 12653, YM agar Difco 0712 (ATCC medium no. 200) • Postia poria: ATCC number 11538, YM agar Difco 0712 (ATCC medium no. 200) • Pleurotus ostreatus: ATCC number 32237, YM agar Difco 0712 (ATCC medium no. 200) • Trametes versicolor: ATCC number 42462, Hagem's-Modess medium (ATCC medium no. 479) • Gleoephyllum trabeum: ATCC number 11539, Potato Dextrose Agar with 0.5% yeast extract (ATCC medium no. 337)
Each plate was then inoculated in a flame induced sterile environment with a 5 mm diameter agar plug fungal colony of those fungi listed. […] The plates were incubated for 14 days at 30 C and the presence or absence of fungal growth was noted and measured.

SMILES: Oc1c(Cl)c(Cl)c(Cl)c(Cl)c1Cl [PCP, pentachlorophenol]
- growth of fungi: completely inhibited
